In US7709471B2, “Compounds” (AstraZeneca AB, priority 2006, dated 2010):

Tested on: human colon tumour cell line HT29
Assay: Cellular Assay (phosphohistone H3 Ser10 mitotic marker, HT29)
Assay type: cell-based
Conditions: HT-29, 24 h, HT29 cells, read-out: IC50 (cellular assay, phosphohistone H3)

Compound	IC50 [nM]
CCN1CCC(NC(=O)c2cc(F)c(Nc3ncc4c(n3)N(C3CCCC3)CC(C)(C)C(=O)N4C)cc2F)CC1 [Example 355, 4-[(2-cyclopentyl-4,4,6-trimethyl-5-oxo-2,6,9,11-tetrazabicyclo[5.4.0]undeca-7,9,11-trien-10-yl)amino]-N-(1-ethyl-4-piperidyl)-2,5-difluoro-benzamide]	< 300
COc1cc(C(=O)NC2C[C@H]3CCC[C@@H](C2)N3C)ccc1Nc1ncc2c(n1)N(C1CCCCC1)CCC(=O)N2C (stereo partly drawn) [Example 418, 4-[(2-cyclohexyl-6-methyl-5-oxo-2,6,9,11-tetrazabicyclo[5.4.0]undeca-7,9,11-trien-10-yl)amino]-3-methoxy-N-[(1R,5S)-9-methyl-9-azabicyclo[3.3.1]non-7-yl]benzamide]	< 300
CN1C(=O)CCN(C2CCCC2)c2nc(Nc3cccc(-c4ccccc4)c3)ncc21 [Example 171, 6-cyclopentyl-2-methyl-9-[(3-phenylphenyl)amino]-2,6,8,10-tetrazabicyclo[5.4.0]undeca-8,10,12-trien-3-one]	< 30000
CN1C(=O)C2(CC2)CN(C2CCCC2)c2nc(Nc3cc(F)c(C(=O)NC4CCC(N(C)C)CC4)cc3Cl)ncc21 (centres unmarked) [Example 394, 5-chloro-4-(9′-cyclopentyl-5′-methyl-6′-oxo-5′,6′,8′,9′-tetrahydrospiro[cyclopropane-1,7′-pyrimido[5,4-b][1,4]diazepine]-2′-ylamino)-N-(4-dimethylaminocyclohexyl)-2-fluoro-benzamide]	< 300
CCN1CCC(NC(=O)c2cc(F)c(Nc3ncc4c(n3)N(C3CCCCC3)CCC(=O)N4C)cc2F)CC1 [Example 415, 4-[(2-cyclohexyl-6-methyl-5-oxo-2,6,9,11-tetrazabicyclo[5.4.0]undeca-7,9,11-trien-10-yl)amino]-N-(1-ethyl-4-piperidyl)-2,5-difluoro-benzamide]	< 300
CN1C(=O)C(C)(C)CN(C2CCCC2)c2nc(Nc3cc(F)c(C(=O)NC4CCC(N(C)C)CC4)cc3Cl)ncc21 (centres unmarked) [Example 366, 5-chloro-4-[(2-cyclopentyl-4,4,6-trimethyl-5-oxo-2,6,9,11-tetrazabicyclo[5.4.0]undeca-7,9,11-trien-10-yl)amino]-N-(4-dimethylaminocyclohexyl)-2-fluoro-benzamide]	< 300
CCC1(CC)CN(C2CCCC2)c2nc(Nc3ccc(C(=O)NCC(C)(C)CN4CCCC4)cc3OC)ncc2N(C)C1=O [Example 376, 4-[(2-cyclopentyl-4,4-diethyl-6-methyl-5-oxo-2,6,9,11-tetrazabicyclo[5.4.0]undeca-7,9,11-trien-10-yl)amino]-N-(2,2-dimethyl-3-pyrrolidin-1-yl-propyl)-3-methoxy-benzamide]	< 300
COc1cc(C(=O)NCC(C)(C)CN2CCCC2)ccc1Nc1ncc2c(n1)N(C1CCCCC1)CC1(CC1)C(=O)N2C [Example 440, 4-(9′-cyclohexyl-5′-methyl-6′-oxo-5′,6′,8′,9′-tetrahydrospiro[cyclopropane-1,7′-pyrimido[5,4-b][1,4]diazepine]-2′-ylamino)-N-(2,2-dimethyl-3-pyrrolidin-1-yl-propyl)-3-methoxy-benzamide]	< 300
CN1C(=O)CCN(C2CCCC2)c2nc(Nc3cc(F)c(C(=O)NCCN4CCCC4)cc3F)ncc21 [Example 335, 4-[(2-cyclopentyl-6-methyl-5-oxo-2,6,9,11-tetrazabicyclo[5.4.0]undeca-7,9,11-trien-10-yl)amino]-2,5-difluoro-N-(2-pyrrolidin-1-ylethyl)benzamide]	< 300
CCN1CCC(NC(=O)c2cc(F)c(Nc3ncc4c(n3)N(C3CCCC3)CC3(CC3)C(=O)N4C)cc2F)CC1 [Example 395, 4-(9′-cyclopentyl-5′-methyl-6′-oxo-5′,6′,8′,9′-tetrahydrospiro[cyclopropane-1,7′-pyrimido[5,4-b][1,4]diazepine]-2′-ylamino)-N-(1-ethyl-4-piperidyl)-2,5-difluoro-benzamide]	< 300
COc1cc(C(=O)NC2CCC(N3CCC3)CC2)ccc1Nc1ncc2c(n1)N(C1CCCC1)CCC(=O)N2C (centres unmarked) [Example 346, N-[4-(azetidin-1-yl)cyclohexyl]-4-[(2-cyclopentyl-6-methyl-5-oxo-2,6,9,11-tetrazabicyclo[5.4.0]undeca-7,9,11-trien-10-yl)amino]-3-methoxy-benzamide]	< 300
CN1C(=O)C2(CC2)CN(C2CCCC2)c2nc(Nc3ccc(C(=O)NC4C[C@H]5CCC[C@@H](C4)N5C)cc3Cl)ncc21 (stereo partly drawn) [Example 402, 3-chloro-4-(9′-cyclopentyl-5′-methyl-6′-oxo-5′,6′,8′,9′-tetrahydrospiro[cyclopropane-1,7′-pyrimido[5,4-b][1,4]diazepine]-2′-ylamino)-N-[(1S,5R)-9-methyl-9-azabicyclo[3.3.1]non-7-yl]benzamide]	< 300
CN1C(=O)CCN(C2CCCC2)c2nc(Nc3cccc(C(N)=O)c3)ncc21 [Example 167, 3-[(6-cyclopentyl-2-methyl-3-oxo-2,6,8,10-tetrazabicyclo[5.4.0]undeca-8,10,12-trien-9-yl)amino]benzamide]	< 30000
COc1cc(C(=O)NC2C[C@H]3CCC[C@@H](C2)N3C)c(F)cc1Nc1ncc2c(n1)N(C1CCCCC1)CCC(=O)N2C (stereo partly drawn) [Example 427, 4-[(2-cyclohexyl-6-methyl-5-oxo-2,6,9,11-tetrazabicyclo[5.4.0]undeca-7,9,11-trien-10-yl)amino]-2-fluoro-5-methoxy-N-[(1R,5S)-9-methyl-9-azabicyclo[3.3.1]non-7-yl]benzamide]	< 300

Other lines, results leading:

IC50 [nM]	Compound
< 300	COc1cc(C(=O)N[C@@H]2CCN(C)C2)c(Cl)cc1Nc1ncc2c(n1)N(C1CCCC1)CCC(=O)N2C [Example 336, 2-chloro-4-[(2-cyclopentyl-6-methyl-5-oxo-2,6,9,11-tetrazabicyclo[5.4.0]undeca-7,9,11-trien-10-yl)amino]-5-methoxy-N-[(3R)-1-methylpyrrolidin-3-yl]benzamide]
< 300	COc1cc(C(=O)NCCN2CCCC2)ccc1Nc1ncc2c(n1)N(C1CCCC1)CC1(CC1)C(=O)N2C [Example 384, 4-(9′-cyclopentyl-5′-methyl-6′-oxo-5′,6′,8′,9′-tetrahydrospiro[cyclopropane-1,7′-pyrimido[5,4-b][1,4]diazepine]-2′-ylamino)-3-methoxy-N-(2-pyrrolidin-1-ylethyl)benzamide]
< 300	CN1CCC(NC(=O)c2cc(F)c(Nc3ncc4c(n3)N(C3CCCCC3)CCC(=O)N4C)cc2F)CC1 [Example 412, 4-[(2-cyclohexyl-6-methyl-5-oxo-2,6,9,11-tetrazabicyclo[5.4.0]undeca-7,9,11-trien-10-yl)amino]-2,5-difluoro-N-(1-methyl-4-piperidyl)benzamide]
< 300	COc1cc(C(=O)NCC2(CN3CCCC3)CC2)c(F)cc1Nc1ncc2c(n1)N(C1CCCCC1)CC1(CC1)C(=O)N2C [Example 445, 4-(9′-cyclohexyl-5′-methyl-6′-oxo-5′,6′,8′,9′-tetrahydrospiro[cyclopropane-1,7′-pyrimido[5,4-b][1,4]diazepine]-2′-ylamino)-2-fluoro-5-methoxy-N-[[1-(pyrrolidin-1-ylmethyl)cyclopropyl]methyl]benzamide]
< 300	COc1cc(C(=O)NCCN2CCCC2)c(F)cc1Nc1ncc2c(n1)N(C1CCCCC1)CC1(CC1)C(=O)N2C [Example 444, 4-(9′-cyclohexyl-5′-methyl-6′-oxo-5′,6′,8′,9′-tetrahydrospiro[cyclopropane-1,7′-pyrimido[5,4-b][1,4]diazepine]-2′-ylamino)-2-fluoro-5-methoxy-N-(2-pyrrolidin-1-ylethyl)benzamide]
< 30000	CCOc1cc(C(=O)N[C@@H]2CCN(C)C2)c(F)cc1Nc1ncc2c(n1)N(C(C)C)CC(C)(C)C(=O)N2C [Example 297, 5-ethoxy-2-fluoro-N-[(3R)-1-methylpyrrolidin-3-yl]-4-[(4,4,6-trimethyl-5-oxo-2-propan-2-yl-2,6,9,11-tetrazabicyclo[5.4.0]undeca-7,9,11-trien-10-yl)amino]benzamide]
< 300	COc1cc(C(=O)NC2CCC(N3CCC3)CC2)ccc1Nc1ncc2c(n1)N(C1CCCC1)CC(C)(C)C(=O)N2C (centres unmarked) [Example 374, N-[4-(azetidin-1-yl)cyclohexyl]-4-[(2-cyclopentyl-4,4,6-trimethyl-5-oxo-2,6,9,11-tetrazabicyclo[5.4.0]undeca-7,9,11-trien-10-yl)amino]-3-methoxy-benzamide]
< 1000	CC(C)N1CC(C)(C)C(=O)N(C)c2cnc(Nc3cc(F)c(C(=O)NC4CCN(C)CC4)cc3Cl)nc21 [Example 289, 5-chloro-2-fluoro-N-(1-methyl-4-piperidyl)-4-[(4,4,6-trimethyl-5-oxo-2-propan-2-yl-2,6,9,11-tetrazabicyclo[5.4.0]undeca-7,9,11-trien-10-yl)amino]benzamide]
< 1000	COc1cc(C(=O)NCCN2CCCC2)ccc1Nc1ncc2c(n1)N(C(C)C)CC(C)(C)C(=O)N2C [Example 301, 3-methoxy-N-(2-pyrrolidin-1-ylethyl)-4-[(4,4,6-trimethyl-5-oxo-2-propan-2-yl-2,6,9,11-tetrazabicyclo[5.4.0]undeca-7,9,11-trien-10-yl)amino]benzamide]
< 300	COc1cc(C(=O)NCCN2CCCC2)c(F)cc1Nc1ncc2c(n1)N(C1CCCCC1)CCC(=O)N2C [Example 425, 4-[(2-cyclohexyl-6-methyl-5-oxo-2,6,9,11-tetrazabicyclo[5.4.0]undeca-7,9,11-trien-10-yl)amino]-2-fluoro-5-methoxy-N-(2-pyrrolidin-1-ylethyl)benzamide]
< 300	COc1cc(C(=O)N[C@@H]2CCN(C)C2)c(F)cc1Nc1ncc2c(n1)N(C1CCCC1)CC(C)(C)C(=O)N2C [Example 364, 4-[(2-cyclopentyl-4,4,6-trimethyl-5-oxo-2,6,9,11-tetrazabicyclo[5.4.0]undeca-7,9,11-trien-10-yl)amino]-2-fluoro-5-methoxy-N-[(3R)-1-methylpyrrolidin-3-yl]benzamide]
< 1000	COc1cc(C(=O)NCCN(C)C)ccc1Nc1ncc2c(n1)N(C(C)C)CC(C)(C)C(=O)N2C [Example 302, N-(2-dimethylaminoethyl)-3-methoxy-4-[(4,4,6-trimethyl-5-oxo-2-propan-2-yl-2,6,9,11-tetrazabicyclo[5.4.0]undeca-7,9,11-trien-10-yl)amino]benzamide]
